Source: the supplement of paper PMC10307832

Tests used:
Experiment in all cases: relative viability (nuclei count vs DMSO), 5 days (fraction); higher = more cells survive
A-427 = tested on: A-427
How it was run: (§1)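 Nuclei were stained with Hoechst during a one-step fixation (final 0.05% Triton X-100, 1% formaldehyde, 1 ug/ml Hoechst) carried out 5 days after dosing, then counted on 4× images. The cells, lung cancer lines in 1536-well plates, had been dosed by pin tool the day after seeding with one drug alone or a fixed anchor-drug dose plus five library-drug doses (not always all listed) in √10 steps. Relative viability is the nuclei count in treated wells divided by that in vehicle wells, and each value is the median of duplicate plates.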

NCI-H2342 = tested on: NCI-H2342
How it was run: as §1

NCI-H1975 = tested on: NCI-H1975
How it was run: as §1

SW 900 = tested on: SW 900
How it was run: as §1

NCI-H1792 = tested on: NCI-H1792
How it was run: as §1

NCI-H1734 = tested on: NCI-H1734
How it was run: as §1

NCI-H2405 = tested on: NCI-H2405
How it was run: as §1

LC-2-ad = tested on: LC-2-ad
How it was run: as §1

NCI-H520 = tested on: NCI-H520
How it was run: as §1

COR-L 105 = tested on: COR-L 105
How it was run: as §1

CAL-12T = tested on: CAL-12T
How it was run: as §1

Q: How did the relative viability (A-427; first compound 0.001 µM) turn out when `Cc1cn(-c2cc(NC(=O)c3ccc(C)c(Nc4nccc(-c5cccnc5)n4)c3)cc(C(F)(F)F)c2)cn1` [Nilotinib] + CC(=O)Nc1cccc(-n2c(=O)n(C3CC3)c(=O)c3c(Nc4ccc(I)cc4F)n(C)c(=O)c(C)c32)c1 [Trametinib] (partner 0.02 µM) was run?
A: The relative viability was 0.812.

Q: And the relative viability (A-427; first compound 0.003162 µM)?
A: Its relative viability is 0.567.

Q: What about the relative viability (A-427; first compound 0.01 µM) of the same compound?
A: Its relative viability is 0.73.

Q: What about the relative viability (A-427; first compound 0.03162 µM) of the same compound?
A: Its relative viability is 0.522.

Q: And the relative viability (A-427; first compound 0.1 µM)?
A: Its relative viability is 0.556.

Q: What about the relative viability (NCI-H2342; first compound 0.001 µM) of the same compound?
A: Its relative viability is 0.786.

Q: And the relative viability (NCI-H2342; first compound 0.003162 µM)?
A: The relative viability was 0.76.

Q: And the relative viability (NCI-H2342; first compound 0.01 µM)?
A: The relative viability was 0.798.

Q: What about the relative viability (NCI-H2342; first compound 0.03162 µM) of the same compound?
A: Its relative viability is 0.711.

Q: And the relative viability (NCI-H2342; first compound 0.1 µM)?
A: The relative viability was 0.842.

Q: And the relative viability (NCI-H1975; first compound 0.001 µM)?
A: Its relative viability is 0.338.

Q: And the relative viability (NCI-H1975; first compound 0.003162 µM)?
A: Its relative viability is 0.338.

Q: And the relative viability (NCI-H1975; first compound 0.01 µM)?
A: Its relative viability is 0.308.

Q: What about the relative viability (NCI-H1975; first compound 0.03162 µM) of the same compound?
A: The relative viability was 0.241.

Q: What about the relative viability (NCI-H1975; first compound 0.1 µM) of the same compound?
A: Its relative viability is 0.234.

Q: And the relative viability (SW 900; first compound 0.003162 µM)?
A: Its relative viability is 0.973.

Q: What about the relative viability (SW 900; first compound 0.03162 µM) of the same compound?
A: The relative viability was 0.76.

Q: What about the relative viability (SW 900; first compound 0.1 µM) of the same compound?
A: The relative viability was 0.613.

Q: And the relative viability (NCI-H1792; first compound 0.001 µM)?
A: The relative viability was 0.365.

Q: And the relative viability (NCI-H1792; first compound 0.003162 µM)?
A: The relative viability was 0.491.

Q: What about the relative viability (NCI-H1792; first compound 0.01 µM) of the same compound?
A: Its relative viability is 0.446.

Q: And the relative viability (NCI-H1792; first compound 0.03162 µM)?
A: The relative viability was 0.077.

Q: What about the relative viability (NCI-H1792; first compound 0.1 µM) of the same compound?
A: Its relative viability is 0.162.

Q: What about the relative viability (NCI-H1734; first compound 0.001 µM) of the same compound?
A: Its relative viability is 0.57.

Q: And the relative viability (NCI-H1734; first compound 0.003162 µM)?
A: The relative viability was 0.664.

Q: What about the relative viability (NCI-H1734; first compound 0.01 µM) of the same compound?
A: Its relative viability is 0.547.

Q: And the relative viability (NCI-H1734; first compound 0.03162 µM)?
A: The relative viability was 0.345.

Q: What about the relative viability (NCI-H1734; first compound 0.1 µM) of the same compound?
A: Its relative viability is 0.349.

Q: What about the relative viability (NCI-H2405; first compound 0.001 µM) of the same compound?
A: The relative viability was 0.504.

Q: What about the relative viability (NCI-H2405; first compound 0.003162 µM) of the same compound?
A: The relative viability was 0.406.

Q: What about the relative viability (NCI-H2405; first compound 0.01 µM) of the same compound?
A: Its relative viability is 0.457.

Q: And the relative viability (NCI-H2405; first compound 0.03162 µM)?
A: Its relative viability is 0.325.

Q: What about the relative viability (NCI-H2405; first compound 0.1 µM) of the same compound?
A: The relative viability was 0.327.

Q: And the relative viability (LC-2-ad; first compound 0.001 µM)?
A: The relative viability was 0.876.

Q: What about the relative viability (LC-2-ad; first compound 0.003162 µM) of the same compound?
A: The relative viability was 1.09.

Q: What about the relative viability (LC-2-ad; first compound 0.01 µM) of the same compound?
A: The relative viability was 0.967.

Q: And the relative viability (LC-2-ad; first compound 0.03162 µM)?
A: Its relative viability is 0.596.

Q: What about the relative viability (LC-2-ad; first compound 0.1 µM) of the same compound?
A: The relative viability was 0.517.

Q: And the relative viability (NCI-H520; first compound 0.001 µM)?
A: The relative viability was 0.612.

Q: And the relative viability (NCI-H520; first compound 0.003162 µM)?
A: Its relative viability is 0.747.

Q: What about the relative viability (NCI-H520; first compound 0.01 µM) of the same compound?
A: Its relative viability is 0.738.

Q: What about the relative viability (NCI-H520; first compound 0.03162 µM) of the same compound?
A: The relative viability was 0.392.

Q: And the relative viability (NCI-H520; first compound 0.1 µM)?
A: The relative viability was 0.39.

Q: What about the relative viability (COR-L 105; first compound 0.001 µM) of the same compound?
A: Its relative viability is 0.439.

Q: What about the relative viability (COR-L 105; first compound 0.003162 µM) of the same compound?
A: Its relative viability is 0.475.

Q: And the relative viability (COR-L 105; first compound 0.01 µM)?
A: The relative viability was 0.533.

Q: What about the relative viability (COR-L 105; first compound 0.03162 µM) of the same compound?
A: Its relative viability is 0.396.

Q: What about the relative viability (COR-L 105; first compound 0.1 µM) of the same compound?
A: Its relative viability is 0.443.

Q: And the relative viability (CAL-12T; first compound 0.001 µM)?
A: Its relative viability is 0.289.

Q: And the relative viability (CAL-12T; first compound 0.003162 µM)?
A: The relative viability was 0.34.

Q: And the relative viability (CAL-12T; first compound 0.01 µM)?
A: The relative viability was 0.261.

Q: What about the relative viability (CAL-12T; first compound 0.03162 µM) of the same compound?
A: The relative viability was 0.283.
